Patent US20130289108A1, “Palladium-Copper Catalysts for the Homogeneous Selective Oxidation of Thiol Groups” (priority 2011, published 2013)
Marks after values point to notes of the source that are not given here.

Test system: male rats with cytopenia
Assay: Hemostimulating activity: general analysis of the blood of male rats with cyclophosphan cytopenia
Assay type: in vivo
[1] = 3 days after cyclophosphan 120 mg/kg
[2] = 7 days after cyclophosphan 120 mg/kg
[3] = 14 days after cyclophosphan 120 mg/kg

With `O=C([O-])[O-].[Li+].[Li+]` [preparation 3, lithium carbonate] the Erythrocytes [1] was 3.4 ± 0.29 10^12/l, the Leucocytes [1] was 3.22 ± 0.11* 10^9/l and the Lymphocytes [1] was 49.7 ± 1.6 %. For the same molecule, the Reticulocytes [1] was 1.1 ± 0.1%, the Segmented neutrophils [1] was 31 ± 1.7 % and the Erythrocytes [2] was 3.4 ± 0.29 10^12/l. The Leucocytes [2] was 3.22 ± 0.11* 10^9/l, the Lymphocytes [2] was 49.7 ± 1.6 % and the Reticulocytes [2] was 1.1 ± 0.1%. For the same molecule, the Segmented neutrophils [2] was 31 ± 1.7 %, the Erythrocytes [3] was 4.7 ± 0.27 10^12/l and the Leucocytes [3] was 5.2 ± 0.26** 10^9/l. For the same molecule, the Lymphocytes [3] was 70.3 ± 0.9%, the Reticulocytes [3] was 1.3 ± 0.3% and the Segmented neutrophils [3] was 15.0 ± 2.6 %.
With `CC(=O)N[C@@H](CSSC[C@H](NC(C)=O)C(=O)O)C(=O)O` [preparation 4, N-acetyl-L-cysteine disulfide] the Erythrocytes [1] was 3.2 ± 0.33 10^12/l, the Leucocytes [1] was 3.47 ± 0.08* 10^9/l and the Lymphocytes [1] was 52.5 ± 1.3 %. For the same molecule, the Segmented neutrophils [1] was 31 ± 1.8 %, the Erythrocytes [2] was 3.2 ± 0.33 10^12/l and the Leucocytes [2] was 3.47 ± 0.08* 10^9/l. The Lymphocytes [2] was 52.5 ± 1.3 %, the Segmented neutrophils [2] was 31 ± 1.8 % and the Erythrocytes [3] was 4.1 ± 0.21 10^12/l. The Leucocytes [3] was 5.1 ± 0.22** 10^9/l, the Lymphocytes [3] was 71.0 ± 1.6% and the Reticulocytes [3] was 1.2 ± 0.4%. The Segmented neutrophils [3] was 13.6 ± 1.9 %.
